Key:
TNBS-induced colitis [1] = assay: Intestinal permeability, Texas Red labeled LPS, TNBS-colitis model; format: in vivo; conditions: TNBS-colitis mice; 60 mg/kg i.p.; labeled LPS gavage after 20 hours, serum four hours later; compared to vehicle control
Excerpt: (§1) The effectiveness of compounds and methods of the present invention on intestinal barrier protection and treatment of inflammatory bowel disease (IBD) in TNBS (2,4,6-trinitrobenzene sulfonic acid)-induced colitis, an established animal model of inflammatory bowel disease, was examined. TNBS-induced colitis was induced in mice using a modification of techniques previously described. (See Morris et al (1989) Gastroenterology 96:795-803; Boirivant et al (1998) J Exp Med 188:1929-1939; Karhausen et al (2004) J Clin Invest 114:1098-1106.) Mice were shaved on the abdomen (causing total depletion of hair and microlesions) and were then sensitized to subsequent treatment by epicutaneous application of 1% TNBS (Sigma-Aldrich) in 100% ethanol on day minus 7. Seven days later, on day 0, animals were sedated with a 2.5% Tribromoethanol solution in phosphate-buffered saline (14 μl/g body weight), followed by intrarectal administration of a 2.5% TNBS solution in 50% ethanol (5 μl/g body weight). Administration of the 2.5% TNBS solution was carried out using an epidural catheter ([…] Plus Epidural Catheter, Arrow International), which was inserted approximately 6 cm ab ano followed by release of the TNBS solution. […] Four hours later, changes in intestinal permeability were determined by measurement of serum Texas Red labeled LPS levels.

TNBS-induced colitis [2] = assay: Colon length shortening in TNBS-colitis model; format: in vivo; conditions: TNBS-colitis mice, vehicle-treated greater than 17%
Excerpt: as §1, with “Colon length was” for “Four hours later, changes in intestinal permeability were”, “the distance from the most distal aspect of the cecum to the most terminal aspect of the rectum on day 3 post-induction of TNBS-colitis.” for “serum Texas Red labeled LPS levels.”

Question: With `O=C(O)CNC(=O)c1ncc2cc(Sc3ccccc3)ccc2c1O` [Compound A, [(4-Hydroxy-7-phenylsulfanyl-isoquinoline-3-carbonyl)-amino]-acetic acid] as the molecule, how does the “serum Texas Red labeled LPS levels (intestinal permeability)” value (TNBS-induced colitis [1]) read?
Answer: lower levels of serum Texas Red labeled LPS

Question: And the “average decrease in colon length at day 3” value (TNBS-induced colitis [2]; 20 mg/kg i.p. on day minus 1, day 0, day 1)?
Answer: approximately 12%

Question: And the “average decrease in colon length at day 3” value (TNBS-induced colitis [2]; 40 mg/kg i.p. on day minus 1, day 0, day 1)?
Answer: ~8%

Reference: patent US8962530B2, “Inflammatory bowel disease therapies” (Regents of the University of Colorado, priority 2007, dated 2015)
